For assay [1], the system named is APPfl, CTFβ, BACE, PS1. Kind of assay: Western blot of APP processing, APP/PS1 mice. It counts as in vivo. The conditions noted are these: cortex and hippocampus, AP5-treated vs APP/PS1 mice. The method, then:
(§1) APP/PS1 mice of ages 6 months were randomly divided into vehicle (APP/PS1, n = 10) and treatment groups (AP5, n = 10), which were intragastrically administered with AP5 (40 mg/kg) once daily for consecutive 5 months. AP5 was dissolved in distilled water containing 1% sodium carboxymethyl cellulose.
Frozen hippocampus and cortex were homogenized in pre-cooling RIPA buffer (P0013B, Beyotime) supplemented with 1 mM phenylmethanesulfonyl fluoride (PMSF) and cocktail of protease and phosphatase inhibitors. […] The membranes were incubated with 5% fat-free milk blocking solution for 1 h at room temperature and then probed with primary antibodies overnight at 4°C. […] Densitometric analysis was performed using Quantity One software (Bio-Rad, Berkeley, CA, United States). […]
(1:100, BAF2655, R&D, Minneapolis, MN, USA). […] For the quantification of Aβ plaque-associated microglia and astrocyte, Iba1- and GFAP-immunopositive cells around plaques were counted. On each slide, ten plaques were randomly determined and the microglia (nuclei) in the immediate vicinity (two times the plaque diameter) of each plaque were counted. For colocalization of PSD95 and synaptophysin, images were analyzed with the puncta analyzer plugin with a minimum pixel specification of 4 in Image Jand thresholding was consistent for every image. […]
In general terms: In western blotting, separated proteins are transferred to a membrane and probed.

The test system of assay [2] is synaptophysin, PSD95. The experiment in a line: Synaptophysin and PSD95 co-immunofluorescence and western blot, hippocampus. It is filed as in vivo, APP/PS1 mice. The method, then: as §1
The fixed hemibrains were paraffin-embedded and sectioned in the coronal plane. The slices were deparaffinized with xylene and rehydrated by a series of gradient alcohols. Antigen retrieval through microwave boiling was performed with 10 mM sodium citrate solution at pH 6.0. The slices were cooled down to room temperature and then rinsed in PBS solution. […]
Frozen hippocampus and cortex were homogenized in pre-cooling RIPA buffer (P0013B, Beyotime) supplemented with 1 mM phenylmethanesulfonyl fluoride (PMSF) and cocktail of protease and phosphatase inhibitors. […] Densitometric analysis was performed using Quantity One software (Bio-Rad, Berkeley, CA, United States).
Briefly, for ACh assay, the reactions were started by adding 100 µL of the Amplex Red reagent, HRP, choline oxidase, AChE working solution to each microplate well containing the controls and samples. […] Assay plates were incubated at room temperature for 30 min and protected from light, followed by detecting fluorescence of resorufin (λex = 544 nm, λem = 590 nm) in a fluorescence microplate reader. […]

Assay [3] deals with TNF-α, IL-6, IL-1β. Kind of assay: ELISA of proinflammatory cytokines, APP/PS1 mice. It counts as in vivo. The conditions noted are these: TBS fraction, AP5 40 mg/kg once daily 5 months. The method, then:
as §1
For detecting the pathological soluble or insoluble Aβ in mice, sequential extractions were performed as follows: the half of right hippocampus and cortex from three groups were homogenized in TBS solution containing 5 mM EDTA, phosphatase inhibitor (P1050, Beyotime, Shanghai, China), and protease inhibitor cocktail (P1010, Beyotime) followed by centrifugation at 25,000g at 4°C for 1 h. The supernatant was collected as a TBS fraction and the resulting pellet was solubilized in 70% formic acid (FA), sonicated until the lysis buffer was clear, followed by centrifugation at 25,000g at 4°C for 1 h. The supernatant was collected as the FA fraction and neutralized (1:20) in a neutralization buffer (1 M tris base, 0.5 M Na2HPO4, 0.05% NaN3). Human Aβ40 and Aβ42 were determined by ELISA kits (E-EL-H0452c and E-EL-H0453c, Elabscience, Wuhan, China) in accordance with the manufacturer’s instructions. In addition, the levels of IL-1β (88-7013-88, Invitrogen), IL-6 (EK206HS-96, Multi sciences, HangZhou, China), and TNF-α (88-7324-88, Invitrogen) in TBS fraction were also determined by ELISA.
On the technique in general: ELISA stands for enzyme-linked immunosorbent assay.

The record followed here is article PMC9289467, “A Novel Multifunctional 5,6-Dimethoxy-Indanone-Chalcone-Carbamate Hybrids Alleviates Cognitive Decline in Alzheimer’s Disease by Dual Inhibition of Acetylcholinesterase and Inflammation” (Frontiers in Aging Neuroscience, 2022).

Consider `CCN(C)C(=O)Oc1cccc(/C=C2\Cc3cc(OC)c(OC)cc3C2=O)c1` [AP5, (E)-3-((5,6-dimethoxy-1-oxo-1,3-dihydro-2H-inden-2-ylidene)-methyl)phenylethyl(methyl)carbamate], for which the “expression levels of APPfl, CTFβ, BACE and presenilin 1” value in assay [1] is given as “no significant changes”. Moreover, the “pre-, post- and double-positive synaptic puncta (synapse damage)” value in assay [2] (synaptophysin and PSD95 co-immunofluorescence, hippocampus CA3) is on record as “markedly recovered”. Moreover, in assay [2] (western blot, hippocampus), the “expression levels of synaptophysin and PSD95” value is “more than that in the APP/PS1 mice”. For the same compound, in assay [3], the IL-1β level entry is on record as “markedly reduced”, the IL-6 level result is reported as “markedly reduced” and the TNF-α level result is “markedly reduced”.
